Source: US8334266B2, “Process for and intermediates in the preparation of canfosfamide and its salts” (Telik, Inc., priority 2004, dated 2012)
Counter-ions that a name gives are not always drawn.

How the values were obtained:
[1] = test system: ovarian, breast, non-small cell lung, and colorectal cancers; settings: cited from earlier work
[2] = test system: HL-60 (promyeloid myelocytic leukemia)
Protocol: (§1) The human cancer cell lines HL-60 (promyeloid myelocytic leukemia) and MX-1 (breast carcinoma) were obtained from the National Cancer Institute, Bethesda, Md., U.S.A. The CellTiter-Glo assay kit was obtained from Promega Corporation, Madison, Wis., U.S.A, and was used in accordance with the manufacturer's directions. All assays were conducted in triplicate wells, with dimethyl sulfoxide (DMSO) solvent control. The extent of cell growth was expressed as a percentage of the signal from the solvent control wells.
(§2) Log-phase cells were trypsinized, collected by centrifugation, and resuspended in a small volume of fresh medium, and the density of viable cells was determined following Trypan Blue staining. Cells were diluted in fresh media (5×10^3 cells/mL for HL-60 and 3×10^3 cells/mL for MX-1 cells), Compound 4A (concentrations between 0.1 and 200 μM, dissolved in DMSO, 50 μL) added immediately after dilution to achieve a final DMSO concentration of 0.5%, then the suspensions added at 150 μL/well to 96-well plates, and incubated for several hours to allow attachment in the case of adherent cells. The cells were cultured for approximately three doubling times (3 days). The cells were then collected by centrifugation, and 100 μL of the culture supernatant was replaced by the CellTiter-Glo reagent. After incubation for 15 minutes at room temperature, and the plate was read with a luminometer.

[3] = test system: MX-1 (breast carcinoma); settings: MX-1, cultured 3 days, CellTiter-Glo
Protocol: as §1, §2

[4] = test system: M6709 human colon carcinoma cell line selected for resistance to doxorubicin; settings: resistant line overexpresses GST P1-1; cited from earlier work
[5] = test system: MCF-7 human breast carcinoma cell line selected for resistance to cyclophosphamide; settings: resistant line overexpresses GST P1-1; cited from earlier work
[6] = test system: M7609 engineered to have high, medium, and low levels of GST P1-1; settings: murine xenografts; cited from earlier work
[7] = test system: in vitro cell culture and tumor biopsies; settings: cited from earlier work

N[C@@H](CCC(=O)N[C@@H](CS(=O)(=O)CCOP(=O)(N(CCCl)CCCl)N(CCCl)CCCl)C(=O)N[C@@H](C(=O)O)c1ccccc1)C(=O)O [Canfosfamide hydrochloride]
hematological toxicity ([1]; patients treated): very low incidence of clinically significant hematological toxicity | antitumor activity ([1]; single agent, colorectal and breast cancer): single agent antitumor activity | antitumor activity and survival ([1]; single agent, patients with non-small cell lung cancer and ovarian cancer): significant single agent antitumor activity and improvement in survival

O=C(CC[C@H](NC(=O)OCc1ccccc1)C(=O)O)N[C@@H](CS(=O)(=O)CCOP(=O)(N(CCCl)CCCl)N(CCCl)CCCl)C(=O)N[C@@H](C(=O)O)c1ccccc1 [Compound 4A, N-α-(benzyloxycarbonyl)-L-γ-glutamyl-3-[[2-[[bis[bis(2-chloroethyl)amino]phosphinyl]oxy]-ethyl]sulfonyl]-L-alanyl-2-phenyl-(2R)-glycine]
IC50 ([2]; HL-60, cultured 3 days, CellTiter-Glo): 2200 nM | potency compared with canfosfamide ([2]; in this assay (HL-60 and MX-1 cell lines)): approximately as potent as canfosfamide | IC50 [3]: 34.6 µM

N[C@@H](CCC(=O)N[C@@H](CS(=O)(=O)CCOP(=O)(N(CCCl)CCCl)N(CCCl)CCCl)C(=O)N[C@@H](C(=O)O)c1ccccc1)C(=O)O [canfosfamide, L-γ-glutamyl-3-[[2-[[bis[bis(2-chloroethyl)amino]phosphinyl]oxy]ethyl]sulfonyl]-L-alanyl-2-phenyl-(2R)-glycine]
potency relative to parental cell line [4]: more potent | potency relative to parental cell line [5]: more potent | potency in relation to GST P1-1 level [6]: positively correlated with the level of GST P1-1 | cross-resistance to platinum, paclitaxel, doxorubicin and gemcitabine [7]: non-cross-resistant
